These results are taken from ChEMBL document CHEMBL1201862, “PubChem BioAssay data set” (2004).

SMILES strings stand for the structures. The source made the active and inactive calls. Some results are limits rather than exact numbers.

Test [1] deals with SN12K1. As to the kind of experiment: cells. In kind it is functional. The conditions noted are these: Homo sapiens.
For test [2], the system named is P388. The experiment in a line: cells. In kind it is functional. The note with it: Mus musculus.
The test system of test [3] is P388/ADR. As to the kind of experiment: cells. In kind it is functional. The note with it: Mus musculus.
Test [4] concerns the target T1, High affinity choline transporter 1 (Homo sapiens, UniProt Q9GZV3).
T1 sequence (Q9GZV3 whole entry): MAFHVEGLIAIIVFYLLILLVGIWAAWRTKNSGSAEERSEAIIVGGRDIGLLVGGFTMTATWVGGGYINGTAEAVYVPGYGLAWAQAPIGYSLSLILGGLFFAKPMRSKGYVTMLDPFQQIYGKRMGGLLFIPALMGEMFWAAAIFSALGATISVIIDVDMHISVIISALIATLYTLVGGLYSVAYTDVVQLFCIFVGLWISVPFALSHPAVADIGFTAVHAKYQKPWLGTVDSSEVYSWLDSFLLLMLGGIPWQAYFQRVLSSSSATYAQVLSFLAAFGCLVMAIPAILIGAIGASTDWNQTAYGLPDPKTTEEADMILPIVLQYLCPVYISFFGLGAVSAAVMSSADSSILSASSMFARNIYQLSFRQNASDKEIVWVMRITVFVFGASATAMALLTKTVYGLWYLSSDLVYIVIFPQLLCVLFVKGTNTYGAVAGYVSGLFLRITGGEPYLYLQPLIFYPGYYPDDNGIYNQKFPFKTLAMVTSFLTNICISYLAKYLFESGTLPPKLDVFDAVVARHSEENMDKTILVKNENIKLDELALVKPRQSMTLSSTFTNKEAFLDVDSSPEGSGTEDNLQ
As to the kind of experiment: CHT inhibitors, dose response, cell-based, 5-point CRC, membrane potential dye (AID 504840). In kind it is functional.

The target of test [5] is T2, Heat shock factor protein 1 (Mus musculus, UniProt P38532).
T2 sequence (P38532 whole entry): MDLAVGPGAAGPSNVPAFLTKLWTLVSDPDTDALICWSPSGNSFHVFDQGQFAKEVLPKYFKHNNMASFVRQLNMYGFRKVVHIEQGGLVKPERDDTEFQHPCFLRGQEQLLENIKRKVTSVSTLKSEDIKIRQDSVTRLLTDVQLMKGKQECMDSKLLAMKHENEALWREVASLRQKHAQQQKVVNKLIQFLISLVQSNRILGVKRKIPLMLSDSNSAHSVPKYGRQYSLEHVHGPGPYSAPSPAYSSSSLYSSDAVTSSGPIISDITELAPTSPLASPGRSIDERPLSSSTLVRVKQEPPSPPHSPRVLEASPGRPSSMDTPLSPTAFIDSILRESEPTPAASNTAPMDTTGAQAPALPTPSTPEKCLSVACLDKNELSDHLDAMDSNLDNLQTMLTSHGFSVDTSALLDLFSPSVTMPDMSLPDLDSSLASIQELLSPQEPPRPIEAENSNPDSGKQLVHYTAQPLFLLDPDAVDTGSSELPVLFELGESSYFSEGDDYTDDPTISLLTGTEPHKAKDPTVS
The experiment in a line: inhibition of MG132-induced HSE-luciferase signal, confirmation, cell-based, NIH3T3, luminescence, dose retest (AID 2382).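 Also: NIH3T3 fibroblasts with HSF1-driven luciferase reporter stressed by proteasome inhibitor MG132; luminescence from HSF1-driven luciferase expression after 8 hours of MG132 stress.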 In kind it is functional.

The nature of test [6]: inhibitors of SNCA 5'UTR-driven reporter translation, confirmation, H4 neuroglioma cells, luminescence (AID 1988). In kind it is functional, cell-based.
Test [7] in a line: off-target signal loss in HeLa-CEM21 co-culture – HeLa F-luc CTL cells, cherry-picked, counter-screen for HIV-1 Env fusion inhibitor project, dose response (AID 652040).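 Also: potency for signal decrease marking cytotoxic or nonspecific inhibition.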 In kind it is functional, cell-based.
A short description of test [8]: inhibitors of clade B AD8 Env fusion, dose response, cell-based, cherry-pick (AID 652062).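 Also: luciferase signal from cell-cell fusion driven by HIV-1 clade B AD8 Env; potency is for inhibitors of fusion seen as a drop in luminescence.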 In kind it is functional.
Test [9] is described as follows: inhibitors of HIV Env-driven cell fusion, dose response, cherry-pick (AID 652057). In kind it is functional, cell-based.
The nature of test [10]: ZM109 Env clade C HIV-1 fusion inhibitors, dose response, HeLa effector, CEM target cells, luciferase, cherry-pick (AID 652058). In kind it is functional, cell-based.
The nature of test [11]: inhibitors of firefly luciferase expression or activity, dose response, H4 neuroglioma cells, luminescence (AID 1990). In kind it is functional, cell-based.
In test [12] the target is T3, Rac GTPase-activating protein 1 (Homo sapiens, UniProt Q9H0H5).
T3 sequence (Q9H0H5 whole entry): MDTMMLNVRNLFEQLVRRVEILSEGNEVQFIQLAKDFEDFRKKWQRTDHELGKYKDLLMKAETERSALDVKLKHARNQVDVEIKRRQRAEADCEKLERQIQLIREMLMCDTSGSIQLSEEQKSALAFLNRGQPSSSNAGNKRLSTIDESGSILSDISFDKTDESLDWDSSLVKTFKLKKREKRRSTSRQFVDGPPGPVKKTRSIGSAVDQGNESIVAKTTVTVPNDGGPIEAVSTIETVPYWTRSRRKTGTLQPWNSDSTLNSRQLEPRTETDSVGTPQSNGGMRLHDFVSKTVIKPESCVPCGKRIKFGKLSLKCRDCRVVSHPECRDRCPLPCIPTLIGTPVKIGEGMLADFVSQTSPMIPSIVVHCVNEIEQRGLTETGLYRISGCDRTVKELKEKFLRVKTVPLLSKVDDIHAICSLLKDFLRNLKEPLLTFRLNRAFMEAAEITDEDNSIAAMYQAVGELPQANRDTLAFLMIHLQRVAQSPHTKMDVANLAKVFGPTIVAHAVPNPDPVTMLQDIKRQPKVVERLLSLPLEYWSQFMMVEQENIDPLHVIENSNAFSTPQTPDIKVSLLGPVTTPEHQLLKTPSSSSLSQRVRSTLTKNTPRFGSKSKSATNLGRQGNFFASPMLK
As to the kind of experiment: MgcRacGAP GTPase-activating activity inhibitors, confirmation, biochemical, ADP Hunter fluorescence, primary and confirmatory (AID 624330). In kind it is functional.

Test [13] addresses FAD-linked sulfhydryl oxidase ALR (Homo sapiens, UniProt P55789). As to the kind of experiment: inhibitors of human ALR sulfhydryl oxidase, dose response, biochemical, H2O2 detection, luminescence, cherry-pick (AID 493248).
Test [14] has as its target T4, Protein skinhead-1 (Caenorhabditis elegans, UniProt P34707).
T4 sequence (P34707 whole entry): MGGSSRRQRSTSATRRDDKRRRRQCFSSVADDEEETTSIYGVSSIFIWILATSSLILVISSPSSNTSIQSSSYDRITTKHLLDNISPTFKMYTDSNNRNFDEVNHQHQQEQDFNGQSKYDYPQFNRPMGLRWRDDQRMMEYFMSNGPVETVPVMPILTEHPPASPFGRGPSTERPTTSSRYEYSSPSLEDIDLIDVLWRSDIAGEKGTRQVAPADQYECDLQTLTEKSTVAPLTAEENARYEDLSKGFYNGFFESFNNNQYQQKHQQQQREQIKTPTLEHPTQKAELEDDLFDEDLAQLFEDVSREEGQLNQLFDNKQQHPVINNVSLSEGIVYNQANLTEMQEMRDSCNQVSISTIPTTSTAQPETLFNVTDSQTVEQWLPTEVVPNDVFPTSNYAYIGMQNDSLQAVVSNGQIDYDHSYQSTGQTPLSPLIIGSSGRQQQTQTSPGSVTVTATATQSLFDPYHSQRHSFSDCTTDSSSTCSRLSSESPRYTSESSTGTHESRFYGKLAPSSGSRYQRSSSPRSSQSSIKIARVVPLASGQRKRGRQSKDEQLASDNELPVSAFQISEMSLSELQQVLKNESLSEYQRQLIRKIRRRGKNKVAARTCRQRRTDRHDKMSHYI
In kind it is functional.

In test [15] the target is Large T antigen (Simian virus 40, UniProt P03070). In kind it is functional, Betapolyomavirus macacae.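 Also: Confirmatory-stage PubChem screen for compounds that inhibit SV40 T antigen.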
Large T antigen, sequence (P03070 whole entry): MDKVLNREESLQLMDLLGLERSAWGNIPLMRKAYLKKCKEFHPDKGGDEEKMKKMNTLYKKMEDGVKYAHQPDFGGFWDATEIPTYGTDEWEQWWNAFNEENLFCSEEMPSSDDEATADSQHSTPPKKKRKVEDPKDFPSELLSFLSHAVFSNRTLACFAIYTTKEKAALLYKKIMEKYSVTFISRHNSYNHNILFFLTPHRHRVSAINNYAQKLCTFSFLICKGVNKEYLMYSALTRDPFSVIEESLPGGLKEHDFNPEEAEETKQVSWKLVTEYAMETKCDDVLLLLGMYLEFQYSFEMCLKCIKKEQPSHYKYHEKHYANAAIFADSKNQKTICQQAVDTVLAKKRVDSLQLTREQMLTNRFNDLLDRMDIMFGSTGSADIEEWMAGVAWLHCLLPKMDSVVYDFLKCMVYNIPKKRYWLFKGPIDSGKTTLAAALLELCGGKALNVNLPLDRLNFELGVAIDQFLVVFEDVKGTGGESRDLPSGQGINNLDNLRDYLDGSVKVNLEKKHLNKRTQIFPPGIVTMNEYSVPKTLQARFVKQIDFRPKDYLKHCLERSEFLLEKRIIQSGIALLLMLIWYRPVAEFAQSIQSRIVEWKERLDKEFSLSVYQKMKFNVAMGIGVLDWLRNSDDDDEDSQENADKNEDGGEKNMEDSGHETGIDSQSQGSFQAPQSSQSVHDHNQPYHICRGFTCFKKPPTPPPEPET

FAD-linked sulfhydryl oxidase ALR, sequence (P55789 whole entry): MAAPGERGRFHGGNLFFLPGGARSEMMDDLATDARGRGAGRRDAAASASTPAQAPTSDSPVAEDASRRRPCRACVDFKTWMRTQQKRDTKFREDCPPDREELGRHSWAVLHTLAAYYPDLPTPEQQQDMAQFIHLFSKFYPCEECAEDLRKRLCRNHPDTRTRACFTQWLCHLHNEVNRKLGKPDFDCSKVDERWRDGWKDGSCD

In the case of `CC(=O)NC(Cc1ccsc1)C(=O)O` (centres undefined), the GI50 in test [1], in [2] and in test [3] was > 100 µM (inactive) each time.

Consider `O=C(Nc1ccc(F)c(Cl)c1)C1CCN(S(=O)(=O)c2cccnc2)CC1`, for which, in test [4], the half-inhibitory concentration (IC50) was 13.2 µM (active). The EC50 in [5] was > 195 µM (not active).

With `NC(=O)NN=C(CS)CS`, the results for the GI50 in test [1], in test [2] and in test [3] were 18.7 µM (inactive), 19.1 µM (inactive) and 29.2 µM (inactive), respectively.

In the case of `C[C@]12C=CC(=O)C=C1CC[C@@H]1[C@@H]2CC[C@]2(C)OC(=O)CC[C@@H]12` [TESTOLACTONE], the GI50 in test [1] is 458 µM (inactive); in [2] it was 162 µM (inactive); in [3], 161 µM (inactive).

For the compound `O=C1N[C@@H]([C@H]2CC[C@H](Cl)CN2)C(=O)N[C@H]1[C@H]1CC[C@H](Cl)CN1`, the GI50 in [1] is 1.02 µM (active); in test [2], 0.327 µM (active); in test [3] it was 0.318 µM (active).

Take `O=[N+]([O-])c1cc2ncc(-c3ccccc3)c(O)c2cc1/C(Cl)=C/c1ccccc1`: the results for the GI50 in test [1], in test [2] and in test [3] were 9.08 µM (inactive), 7.35 µM (inactive) and 4.53 µM (inactive), respectively.

As for `CC1=C2C(=CO[C@H](C)[C@H]2C)C(O)=C(C(=O)O)C1=O` [CITRININ], the values for the GI50 in test [1], in test [2] and in test [3] were 15.3 µM (inactive), 17 µM (inactive) and 11.5 µM (inactive), respectively.

Take `C/C(=N\NC(=S)N1CCN(c2ccccn2)CC1)c1ncccn1`: the GI50 in test [1] is 0.007 µM (active); in test [2], 0.00326 µM (active); in test [3] it was 0.00356 µM (active).

In the case of `O=C(NCCCCCCNC(=O)n1cc(F)c(=O)[nH]c1=O)NCCCOCCOCCCNC(=O)C(O)C(O)C(O)C(O)CO` (centres undefined), the GI50 in [1] was > 1.91 µM (inactive); in test [2], 0.107 µM (active); in test [3], 0.0822 µM (active).

For the compound `COc1cccc2c1C(=O)c1c(O)c3c(c(O)c1C2=O)C[C@@](O)(C(C)=O)C[C@@H]3OC1CC(N)C(O)C(C)O1` (some centres undefined), the concentration for 50% growth inhibition (GI50) in [1] was 0.069 µM (active); in test [2], 0.076 µM (active); in test [3] it was 1.23 µM (inactive).

As to `COc1ccc(C(=O)N(C)Cc2ccc(C)o2)cc1OC1CCN(C(C)C)CC1`, the half-maximal inhibitory concentration (IC50) in [4] was 12.6 µM (active).

Take `CN(C)c1ccc(C(=O)c2ccc(O)cc2O)cc1`: the IC50 in [4] was 11 µM (active).

Consider `COc1ccc(C(=O)C(C)N(C(=O)c2ccc(Cl)cc2Cl)N2C(=O)C3C4C=CC(C4)C3C2=O)cc1` (centres undefined), for which the values for the concentration for a half-maximal effect (EC50) in test [6] and in test [11] were > 120 µM (not active) and 16.7 µM (active), respectively. Further, the half-maximal activity concentration (AC50) in test [7] was 4.93 µM (active); in test [8], 13.1 µM (active); in test [9], 2.94 µM (active); in test [10] it was 2.82 µM (active).

On to `CCCn1c2ccccc2c2cnn(CC(=O)NCCN(C)C)c(=O)c21`, for which the IC50 in test [4] was 11.5 µM (active).

Consider `CCN(CC)c1ccc(NC(=O)CNCc2ccccc2Cl)c(C)c1`, for which the half-maximal inhibitory concentration (IC50) was 31 µM (active) in test [12] and 20.9 µM (active) in test [4]. Moreover, in [13], the AC50 was 1.61 µM (active).

Take `CCN(CC)c1ccc2cc(C(=O)Nc3ccc4[nH]c(C(=O)N5C[C@@H](CCl)c6c5cc(OC(=O)Nc5ccccc5)c5[nH]cc(C)c65)cc4c3)oc2c1` [CARZELESIN]: the GI50 is 0.00016 µM (active) in [1], 8.38e-05 µM (active) in test [2] and 259 µM (inactive) in test [3].

Take `Cc1cc(C)c2nc(C(F)(F)F)nc(N3CCN(C(=O)c4ccco4)CC3)c2c1`: the AC50 in test [7] was 21.9 µM (active); in test [8], 25.7 µM (active); in test [9] it was 31.2 µM (active); in test [10], 1.22 µM (active). Further, the IC50 in test [14] is > 100 µM (inactive).

In the case of `CC(=O)/C=C/c1c[nH]c(=O)[nH]c1=O`, the GI50 in test [1] is 121 µM (inactive); in [2], 164 µM (inactive); in test [3], 148 µM (inactive).

For the compound `O=C1NC(=O)N(c2ccc(Cl)cc2)C(=O)/C1=C/c1coc2ccc(O)cc2c1=O`, the IC50 in [4] is 12.7 µM (active); in test [15], > 100 µM (active).

Turning to `COc1ccc(-c2nnn(CC(=O)N(Cc3cccs3)C(C)C(=O)NC3CCCC3)n2)cc1OC` (centres undefined), the concentration at half-maximal activity (AC50) in test [7] is 24.8 µM (active); in test [8], 10.1 µM (active); in test [9], 5.2 µM (active); in [10] it was 9.35 µM (active).

Regarding `Cc1ccc(N(O)C(C)(C)C)cc1`, the GI50 in [1] is > 100 µM (inactive); in [2], > 52.1 µM (inactive); in test [3], 24.8 µM (inactive).

`COc1cc(/N=N\c2cccc(S(=O)(=O)O)c2)c(C)cc1/N=N\c1ccc(/C=C/c2ccc(/N=[N+](/[O-])c3ccc(/C=C/c4ccc(/N=N\c5cc(C)c(/N=N/c6cccc(S(=O)(=O)O)c6)cc5OC)cc4)c(S(=O)(=O)O)c3)cc2S(=O)(=O)O)cc1`: the GI50 in [1] and in test [2] was > 100 µM (inactive) each time.

`CCC1(C)Cc2c(sc3nnn(CC(=O)Nc4ccccc4)c(=O)c23)CO1` (centres undefined): in test [4], the half-maximal inhibitory concentration (IC50) was 11.5 µM (active).
